Results on 61 compounds are retold here after patent US9416126B2, “Compounds inhibiting leucine-rich repeat kinase enzyme activity” (Merck Sharp & Dohme Corp., priority 2013, dated 2016).

Molecules are shown by their SMILES.

T1 sequence (Q5S007 970-2527 G2019S): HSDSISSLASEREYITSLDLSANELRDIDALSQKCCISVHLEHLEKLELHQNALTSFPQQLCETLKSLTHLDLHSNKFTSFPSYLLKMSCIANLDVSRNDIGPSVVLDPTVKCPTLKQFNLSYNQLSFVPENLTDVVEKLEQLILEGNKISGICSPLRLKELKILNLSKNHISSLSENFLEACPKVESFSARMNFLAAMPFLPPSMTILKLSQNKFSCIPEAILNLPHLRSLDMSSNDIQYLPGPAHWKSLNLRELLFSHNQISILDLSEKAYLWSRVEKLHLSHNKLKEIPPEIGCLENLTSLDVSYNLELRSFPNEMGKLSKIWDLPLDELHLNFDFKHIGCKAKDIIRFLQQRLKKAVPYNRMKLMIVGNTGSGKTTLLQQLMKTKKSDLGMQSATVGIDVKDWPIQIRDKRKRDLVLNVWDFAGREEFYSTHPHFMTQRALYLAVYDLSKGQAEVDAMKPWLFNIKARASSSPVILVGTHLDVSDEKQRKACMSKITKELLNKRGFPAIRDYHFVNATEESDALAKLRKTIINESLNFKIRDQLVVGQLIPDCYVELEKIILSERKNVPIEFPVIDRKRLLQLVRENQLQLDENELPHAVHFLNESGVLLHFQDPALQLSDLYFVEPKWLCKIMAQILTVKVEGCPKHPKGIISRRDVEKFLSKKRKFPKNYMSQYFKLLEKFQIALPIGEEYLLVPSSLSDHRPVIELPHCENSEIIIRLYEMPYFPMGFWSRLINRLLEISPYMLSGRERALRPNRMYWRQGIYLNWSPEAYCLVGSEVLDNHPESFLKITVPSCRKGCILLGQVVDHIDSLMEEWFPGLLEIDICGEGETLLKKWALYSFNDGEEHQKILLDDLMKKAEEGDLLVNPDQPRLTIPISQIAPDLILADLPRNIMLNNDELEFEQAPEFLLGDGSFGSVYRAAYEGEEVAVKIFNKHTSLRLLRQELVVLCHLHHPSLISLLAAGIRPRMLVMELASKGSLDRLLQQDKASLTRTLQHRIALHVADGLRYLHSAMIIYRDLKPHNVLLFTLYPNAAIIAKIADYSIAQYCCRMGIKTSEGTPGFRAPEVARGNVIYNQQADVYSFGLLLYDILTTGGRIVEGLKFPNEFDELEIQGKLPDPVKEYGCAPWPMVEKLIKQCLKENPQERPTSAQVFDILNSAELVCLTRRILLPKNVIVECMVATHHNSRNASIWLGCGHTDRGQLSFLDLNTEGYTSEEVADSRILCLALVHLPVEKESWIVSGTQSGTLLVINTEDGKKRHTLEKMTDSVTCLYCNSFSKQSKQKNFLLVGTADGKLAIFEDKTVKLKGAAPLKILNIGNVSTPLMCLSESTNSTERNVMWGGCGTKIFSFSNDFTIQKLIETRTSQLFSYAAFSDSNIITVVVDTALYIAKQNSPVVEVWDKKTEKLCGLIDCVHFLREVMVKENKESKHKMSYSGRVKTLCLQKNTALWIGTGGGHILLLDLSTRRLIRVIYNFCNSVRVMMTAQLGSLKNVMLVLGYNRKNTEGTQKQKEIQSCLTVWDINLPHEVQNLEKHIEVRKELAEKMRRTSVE

In the first test the target is T1, LRRK2(G2019S mutation, GST-LRRK2(amino acids 970-2527)) (Homo sapiens (Human), UniProt Q5S007, G2019S). Put plainly: LRRK2 Km ATP LanthaScreen Assay. The note with it: Examples N1-N25. The format is biochemical. The gist of the method:
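TR-FRET: GST-LRRK2 970-2527 G2019S (2.5 nM solution) preincubated 30 min with compound (98 μM top, 1:2.15 dilutions), then 800 nM fluorescein-LRRKtide and 184 μM ATP solution added for 60 min at room temperature in Tris pH 8.5 buffer. Stopped with EDTA and Tb anti-phospho-LRRKtide antibody; IC50 is a mean of several tests.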
`CC(C)Oc1cc2c(-c3cc(N4[C@H](C)COC[C@H]4C)ncn3)n[nH]c2cc1F` [Example N24] yielded an IC50 of 62.1 nM.

In the case of `CC(C)Oc1cc2c(-c3cc(N4CCC(F)(C#N)CC4)ncn3)n[nH]c2cc1F` [Example N16], the IC50 turned out to be 17.7 nM.

Compound `CC(C)Oc1cc2c(-c3cc(N4CCn5nc(C(F)(F)F)nc5C4C)ncn3)n[nH]c2cc1F` (stereo not shown) [Example N5] came in with an IC50 of 176 nM. This IC50 is about 9.9-fold higher than that of the compound before.

`CCOC(=O)N1CCN(c2cc(-c3n[nH]c4cc(F)c(OC(C)C)cc34)ncn2)CC1` [Example N21] came in with an IC50 of 6.1 nM.

Regarding `CC(C)Oc1cc2c(-c3cc(N4CC[C@H](N(C)C)C4)ncn3)n[nH]c2cc1F` [Example N22], half-maximal inhibition (IC50) was put at 7 nM.

On to `CC(C)Oc1cc2c(-c3cc(N4CCn5ncnc5C4)ncn3)n[nH]c2cc1F` [Example N1], for which inhibition was half-maximal at 7.1 nM (IC50).

Regarding `CC(C)Oc1cc2c(-c3cc(N4CCC(F)(CO)CC4)ncn3)n[nH]c2cc1F` [Example N20], the midpoint of inhibition, the IC50, lay at 2.3 nM.

On to `CC(C)Oc1cc2c(-c3cc(N4CC[C@H](CO)C4)ncn3)n[nH]c2cc1F` [Example N6], for which the half-inhibitory concentration (IC50) amounted to 10.2 nM. Compared with the last compound, the IC50 is about 4.4-fold higher.

The test is the same for the next values; noted with them: Examples O1-O23.
Compound `COC[C@H](C)Oc1ccc2[nH]nc(-c3cc(N4CCOC(C(F)(F)F)C4)ncn3)c2c1` (stereo partly shown) [Example O5] returned an IC50 of 8.6 nM.

With `COC[C@H](C)Oc1ccc2[nH]nc(-c3cc(N4CC[C@H](CO)C4)ncn3)c2c1` [Example O6], the IC50 is 6 nM. The IC50 values of the last two compounds are within 1.5-fold of each other.

Consider `COC[C@H](C)Oc1ccc2[nH]nc(-c3cc(N4C[C@H](O)[C@@H](N(C)C)C4)ncn3)c2c1` [Example O22], for which it took 6.6 nM to reach half-maximal inhibition (IC50).

As to `COC[C@H](C)Oc1ccc2[nH]nc(-c3cc(N4CCCC(F)(F)C4)ncn3)c2c1` [Example O4], the IC50 came to 2.8 nM.

Still in this test, the particulars now being: Examples P1-P18.
Consider `Cc1noc(C)c1-c1ccc2[nH]nc(-c3cc(N4CCOCC4)ncn3)c2c1` [Example P4], for which the IC50 was 48.7 nM.

In turn, `c1cc(-c2ccc3[nH]nc(-c4cc(N5CCOCC5)ncn4)c3c2)ccn1` [Example P3] yielded an IC50 of 96.7 nM. This IC50 lies about 2-fold higher than the previous one.

The same test, now with this note: Examples Q1-Q20.
Compound `COc1cc(-c2ccc3[nH]nc(-c4cc(N5C[C@@H](C)O[C@@H](C)C5)ncn4)c3c2)ccn1` [Example Q15] came in with an IC50 of 155 nM.

The test is the same for the next values; noted with them: Km ATP (184 μM ATP solution), G2019S LRRK2, mean IC50.
Consider `Cn1cc(-c2ccc3[nH]nc(-c4cc(N5CCOCC5)ncn4)c3c2)cn1` [Example A1], for which the IC50 turned out to be 2.31 nM.

In turn, `CC(C)Oc1ccc2[nH]nc(-c3cc(N4CCC5(CCNC5=O)CC4)ncn3)c2c1` [Example D32] registered an IC50 of 2.31 nM. That is a single-digit nanomolar value.

Take `CCN1CCN(c2cc(-c3n[nH]c4ccc(-c5cnn(C)c5)cc34)ncn2)CC1` [Example A8]: the IC50 was 0.76 nM.

For the compound `COC[C@H](C)Oc1ccc2[nH]nc(-c3cc(N4CCC5(CC4)CC(=O)N(C)C5)ncn3)c2c1` [Example H10], half-maximal inhibition (IC50) was put at 2.87 nM.

The compound `Cn1cc(-c2cc3c(-c4cc(N5CCCC(C)(O)C5)ncn4)n[nH]c3cc2F)cn1` (stereo not shown) [Example L7] yielded an IC50 of 67.5 nM.

As to `CCOc1ccc2[nH]nc(-c3cc(N4CCN(C)CC4)ncn3)c2c1` [Example F4], half-maximal inhibition (IC50) required 26.9 nM.

Compound `CC(C)Oc1ccc2[nH]nc(-c3cc(N4CCc5oc(C6CC6)nc5C4)ncn3)c2c1` [Example J14] registered an IC50 of 30.1 nM.

The compound `COC1CCN(c2cc(-c3n[nH]c4ccc(-c5cnn(C)c5)cc34)ncn2)CC1` [Example A12] returned an IC50 of 2.04 nM. Compared with the last compound, the IC50 is about 15-fold lower.

For the compound `Cn1cc(-c2ccc3[nH]nc(-c4cc(N5CCC(F)(C#N)CC5)ncn4)c3c2)cn1` [Example M27], the IC50 is 3 nM.

Compound `CCN1CCN(c2cc(-c3n[nH]c4cc(F)c(OC(C)C)cc34)ncn2)CC1=O` [Example D36] yielded an IC50 of 4.16 nM.

As for `CC(C)Oc1ccc2[nH]nc(-c3cc(N4CC[C@@H](F)C4)ncn3)c2c1` [Example J25], the IC50 turned out to be 8.7 nM.

As for `C[C@H]1CN(c2cc(-c3n[nH]c4cc(F)c(-c5cnn(C)c5)cc34)ncn2)CCO1` [Example L12], the IC50 was found to be 26.5 nM.

Compound `C[C@@H]1CN(c2cc(-c3n[nH]c4cc(F)c(-c5cnn(C)c5)cc34)ncn2)CCO1` [Example L13] showed an IC50 of 20.5 nM.

Take `COc1ccc2[nH]nc(-c3cc(N4C[C@@H](C)O[C@@H](C)C4)ncn3)c2c1` [Example E3]: the midpoint of inhibition, the IC50, lay at 29.3 nM.

As for `CCN1CCN(c2cc(-c3n[nH]c4cc(F)c(OC(C)C)cc34)ncn2)CC1` [Example D46], the IC50 is 2.97 nM.

`CC(C)Oc1cc2c(-c3cc(N4CCOCC4C)ncn3)n[nH]c2cc1F` (stereo not shown) [Example D40] came in with an IC50 of 5.54 nM.

`Cn1cc(-c2ccc3[nH]nc(-c4cc(N5CC[C@@H](CF)C5)ncn4)c3c2)cn1` [Example M4] gave an IC50 of 2.3 nM.

Consider `CC(C)Oc1ccc2[nH]nc(-c3cc(N4C[C@@H]5C[C@H]4CO5)ncn3)c2c1` [Example D54], for which the IC50 was 5.94 nM.

`COCCN1CCN(c2cc(-c3n[nH]c4ccc(OC(C)C)cc34)ncn2)CC1=O` [Example D21] gave an IC50 of 5.59 nM.

`Cn1cc(-c2cc3c(-c4cc(N5CCN6C(=O)OCC6C5)ncn4)n[nH]c3cc2F)cn1` (stereo not shown) [Example L18] returned an IC50 of 64.2 nM.

With `CC(C)Oc1ccc2[nH]nc(-c3cc(N4C[C@H](O)[C@@H](N(C)C)C4)ncn3)c2c1` [Example J7], the IC50 is 15.3 nM.

Consider `CC(C)Oc1ccc2[nH]nc(-c3cc(N4CC(S(C)(=O)=O)C4)ncn3)c2c1` [Example J16], for which the IC50 is 13.3 nM.

With `Cc1noc(C2CN(c3cc(-c4n[nH]c5ccc(OC(C)C)cc45)ncn3)C2)n1` [Example J22], it took 9.3 nM to reach half-maximal inhibition (IC50).

The compound `CC(C)Oc1ccc2[nH]nc(-c3cc(N4CCC4)ncn3)c2c1` [Example J4] showed an IC50 of 7.9 nM.

For `Cn1cc(-c2cc3c(-c4cc(N5CCN(CCCO)CC5)ncn4)n[nH]c3cc2F)cn1` [Example L25], the IC50 was determined as 12.6 nM.

Consider `CC(C)Oc1ccc2[nH]nc(-c3cc(N4CC[S+]([O-])CC4)ncn3)c2c1` [Example J13], for which 21 nM corresponded to half-maximal inhibition (IC50). This IC50 lies about 1.7-fold higher than the previous one.

The compound `CC(C)Oc1ccc2[nH]nc(-c3cc(N4CCC(F)(CO)CC4)ncn3)c2c1` [Example K20] registered an IC50 of 6.3 nM.

As to `CC(C)Oc1ccc2[nH]nc(-c3cc(N4CCOCC4C)ncn3)c2c1` (stereo not shown) [Example D13], the IC50 was 19.8 nM. Compared with the last compound, the IC50 is about 3.1-fold higher.

For `CCOc1ccc2[nH]nc(-c3cc(N4CC5CCC(C4)O5)ncn3)c2c1` [Example F10], the IC50 was determined as 32.7 nM.

The compound `CO[C@@H]1CN(c2cc(-c3n[nH]c4cc(F)c(-c5cnn(C)c5)cc34)ncn2)C[C@H]1O` [Example L20] returned an IC50 of 36.2 nM.

For the compound `CS(=O)(=O)N1CCN(c2cc(-c3n[nH]c4ccc(-c5cccnc5)cc34)ncn2)CC1` [Example T2], half-maximal inhibition (IC50) required 7.3 nM. This IC50 is about 5-fold lower than that of the compound before.

As to `CO[C@@H]1CCN(c2cc(-c3n[nH]c4ccc(-c5cnn(C)c5)cc34)ncn2)C1` [Example M1], inhibition was half-maximal at 4 nM (IC50).

The compound `CC(C)Oc1cc2c(-c3cc(N4CC5CCC(C4)O5)ncn3)n[nH]c2cc1F` [Example D47] yielded an IC50 of 14.6 nM. This IC50 is about 3.6-fold higher than that of the compound before.

Compound `CC(C)Oc1ccc2[nH]nc(-c3cc(N4CCN(c5ccncn5)CC4)ncn3)c2c1` [Example J24] returned an IC50 of 15.8 nM.

In turn, `CC(=O)N1CCN(c2cc(-c3n[nH]c4ccc(OC(C)C)cc34)ncn2)CC1` [Example K5] had an IC50 of 11.2 nM. This IC50 and that of the compound before are within 1.5-fold of each other.

Regarding `COCCNc1cc(-c2n[nH]c3ccc(OC(C)C)cc23)ncn1` [Example D16], the IC50 amounted to 26.3 nM.

Turning to `COCCOC1CCN(c2cc(-c3n[nH]c4cc(F)c(OC(C)C)cc34)ncn2)CC1` [Example D67], inhibition was half-maximal at 2.1 nM (IC50).

For `CC(C)Oc1ccc2[nH]nc(-c3cc(N4CCN(c5cnn(C)c5)CC4)ncn3)c2c1` [Example K17], the IC50 was 5.4 nM. Against the preceding compound, the IC50 is about 2.6-fold higher.

`CCOc1ccc2[nH]nc(-c3cc(N4CCN(S(C)(=O)=O)CC4)ncn3)c2c1` [Example F1] registered an IC50 of 15.4 nM.

`COC[C@H](C)Oc1ccc2[nH]nc(-c3cc(N4CC5CCC(C4)O5)ncn3)c2c1` [Example H8] returned an IC50 of 9.93 nM.

As to `COCCNc1cc(-c2n[nH]c3ccc(-c4cnn(C)c4)cc23)ncn1` [Example A7], inhibition was half-maximal at 15 nM (IC50).

For `CC(C)Oc1ccc2[nH]nc(-c3cc(N4CCN(CCO)CC4)ncn3)c2c1` [Example J2], it took 7.4 nM to reach half-maximal inhibition (IC50). Compared with the last compound, the IC50 is about 2-fold lower.

With `CC(C)Oc1ccc2[nH]nc(-c3cc(N4CCN(Cc5ccncc5)CC4)ncn3)c2c1` [Example K16], the IC50 was determined as 8.2 nM.

Still in this test, the particulars now being: Table U.
`C[C@@H]1CN(c2cc(-c3n[nH]c4ccc(-c5cn[nH]c5)cc34)ncn2)C[C@H](C)O1` [Example U27] returned an IC50 of 1.35 nM.

The compound `COc1ccncc1-c1ccc2[nH]nc(-c3cc(N4CCOCC4)ncn3)c2c1` [Example U13] returned an IC50 of 1.72 nM.

In turn, `CC1(C)CC(=O)C=C(c2ccc3[nH]nc(-c4cc(N5CCOCC5)ncn4)c3c2)C1` [Example U11] registered an IC50 of 1.63 nM.

In another test the target is T1, LRRK2(G2019S mutation, GST-LRRK2(amino acids 970-2527)). The test is described as follows: LRRK2 5 mM ATP LanthaScreen Assay. The format is biochemical.
Conditions: not given
The protocol:
The data presented for the 5 mM and Km ATP LanthaScreen™ Assay represents mean IC50 values based on several test results and may have reasonable. deviations depending on the specific conditions and reagents used. Reagents for the LRRK2 5 mM and Km ATP LanthaScreen™ Assay were purchased from Life Technologies Corporation.
LRRK2 5 mM ATP LanthaScreen™ Assay
a) 400 nl of a 1:2.15 serial dilution of test compound(98 μM top assay concentration) is spotted via Labcyte Echo to certain wells in a 384 well black, untreated plate. Control wells contain 400 nl of either DMSO or 400 nl of a known inhibitor in DMSO.
b) 10 μl of a 2.5 nM LRRK2(G2019S mutation, GST-LRRK2(amino acids 970-2527)) enzyme solution in 1× assay buffer(50 mM Tris pH 8.5, 10 mM MgCl2, 0.01% Brij-35, 1.0 mM EGTA, 2 mM DTT, 0.05 mM NaVO4) is added to all wells.
c) A 30 minute room temperature incubation is followed by addition of 10 μl of 800 nM fluorescein labeled LRRKtide peptide substrate and 10 mM ATP solution in 1× assay buffer to all wells.
d) After a 35 minute room temperature incubation, 20 μl of TR-FRET Dilution Buffer(Invitrogen PV3756B) containing 4 nM Tb-labeled anti-phospho LRRKtide antibody and 20 mM EDTA is added to all wells.
e) Plates are incubated at room temperature for 1 hour and read on an Envision™ multi-mode plate reader with LanthaScreen™ settings. Results are analysed using Assay Data Analyzer.
`Cn1cc(-c2ccc3[nH]nc(-c4cc(N5CCOCC5)ncn4)c3c2)cn1` [Example A1]: the IC50 came out at 41 nM.

Regarding `CC(C)Oc1ccc2[nH]nc(-c3cc(N4CCC5(CCNC5=O)CC4)ncn3)c2c1` [Example D32], it took 30 nM to reach half-maximal inhibition (IC50).

`CCN1CCN(c2cc(-c3n[nH]c4ccc(-c5cnn(C)c5)cc34)ncn2)CC1` [Example A8] had an IC50 of 14 nM.
